# Results taken from publication PMC6320925, “Synthesis, In Vitro Biological Evaluation, and Oxidative Transformation of New Flavonol Derivatives: The Possible Role of the Phenyl-N,N-Dimethylamino Group” (Molecules, 2018).
# What was measured:
# [1] = design: method as in ref 20 (Culhaoglu et al.); details: ref 20 (Culhaoglu et al.); cited from earlier work
# [2] = design: method as in ref 20 (Culhaoglu et al.); details: ref 20 (Culhaoglu et al.); cited from earlier work; remark: listed apart in the source
# [3] = design: method as in PMID 28383511; details: cited from earlier work
# [4] = FRAP assay (ferric reducing antioxidant power); details: all tested concentrations (10–200 µM), 30 min incubation
# Experimental: The ferric reducing antioxidant power of the compounds was tested with a modified method of Benzie and Strain [37]. The FRAP reagent consisted of 10 mL acetate buffer (300 mM, pH 3.6), 1 mL TPTZ solution (10 mM) in 40 mM HCl, and 1 mL FeCl3 (10 mM). The mixture was incubated at 37 °C for 15 min and used on the same day. The reaction mixture was prepared by 20 µL of the investigated compound (10, 20, 50, 100, and 200 µM) and 180 µL activated FRAP reagent in a 96-well plate. Following a 30 min incubation period, the absorbance was measured at 593 nm by a Multiskan GO microplate spectrophotometer (Thermo Fisher Scientific, Waltham, MA, USA). Iron (II) sulfate heptahydrate was used as the standard in different concentrations (0.5, 1, 5, 10, 50, 100, and 500 µM). The FRAP values are expressed as µM ferrous equivalents. The experiments were run in duplicate and repeated three times.
# H9c2 cells = assay: MTT cell viability assay; format: cell-based; details: 20 µM, 12 h
# Experimental: (§1) The MTT assay was used to determine the effect of the investigated compounds on the cell viability. H9c2 cells (ATCC, CRL-1446, LGC Standards GmbH, Wesel, Germany) were seeded into 96-well plates at a density of 6000 cells/well in 200 µL media (DMEM, high glucose, pyruvate from Thermo Fischer Scientific with 10% FBS and supplemented with penicillin and streptomycin) and cultured overnight. The flavonols were added to the cells in 20 µM concentration. After 12 h, 20 μL of MTT solution ([…] in PBS) was added to each well, and the plates were incubated for 4 h. Afterwards, the media was carefully removed and 100 μL DMSO was added to each well to dissolve the formazan crystals. Absorbance was measured at 540 and 630 nm using a Synergy HT plate reader (BioTek, Winooski, VT, USA). The tests were carried out in triplicate and repeated two times.
# [5] = ORAC assay (oxygen radical absorbance capacity); details: for ORAC value compared to quercetin: 10 µM; for ORAC value (AUCnet): 2 and 10 µM
# Experimental: The oxygen radical absorbance capacity was evaluated using the ORAC assay. The test was carried out in a black 96-well plate with a black bottom. The stock solutions of 50 nM fluorescein and 180 mM AAPH in phosphate buffer (75 mM, pH 7.00) were prepared freshly and used on the same day. To each well, 20 µL of compound in ACN (2 and 10 µM) was added to 160 µL fluorescein. In the case of blank samples, 20 µL of ACN was added. The plate was incubated for 15 min at 37 °C, and then the 20 µL AAPH solution was rapidly added to each well to initiate the reaction. The fluorescence was monitored at 485 nm excitation and 520 nm emission wavelength for 2 h every 2 min by the FLUOstar OPTIMA (BMG Labtech, Ortenberg, Germany) plate reader. The assay was performed in duplicate and repeated three times. The area under the curve (AUC) was calculated as follows:AUC = 0.5 + (A1/A0) + (A2/A0) + (A3/A0) + ⋯ + (An/A0),(1) where A0 is the fluorescence reading at 0 min and An is the fluorescence reading at n min. The reported ORAC values were calculated by subtracting the blank AUC from the sample AUC and expressed as AUCnet. AUCnet = AUCsample − AUCblank(2)
# [6] = Chemical Fenton reaction (biomimetic model of phase I biotransformation); format: in vitro ADME; details: ESI-MS and LC-MS detection
# Experimental: The Fenton reaction of the compounds was carried out based on a method reported previously by Csepanyi et al.. The reaction mixture consisted of 400 μL 2.5 mM of the investigated compound in ACN, 50 μL 20 mM FeCl3, 50 μL 20 mM EDTA-Na2, and 500 μL 10 mM ascorbic acid in ACN/H2O (50:50) and 2 μL 30% hydrogen peroxide. The reaction mixture was stirred at room temperature at 700 rpm. Samples were drawn at 2, 24, 72, and 144 h and were diluted with ACN/H2O (50:50) and analyzed immediately by an API 2000 Triple Quadrupole mass spectrometer (Applied Biosystems, Waltham, MA, USA) equipped with a syringe pump with the following parameters: 20 μL/min flow rate, 10 PSI curtain gas, 20 V declustering potential, 4000 V ion spray voltage, 400 V focusing potential, and 200 °C ion source temperature. The positive ion electrospray mass spectra were recorded in the range of m/z 100–500 using Analyst 1.5.1. Software (AB SCIEX, Concord, ON, Canada). In additional experiments, the reaction mixture was separated and analyzed with an LTQ XL linear ion trap mass spectrometer coupled with the Accela LC system (Thermo Fisher Scientific, Waltham, MA, USA). The HPLC separation was performed using a Kinetex XB-C18 2.6 μm column, 0.1% formic acid in water, and ACN with 0.1% formic acid with gradient elution, and the flow rate was set to 300 μL/min. […]
# [7] = ABTS radical scavenging assay; details: from inhibition percentage at 120 min, concentration range 10–200 µM
# Experimental: To measure the ABTS radical scavenging activity, the work of Sugahara et al. and Re et al. was followed closely, applying few alterations. A mixture containing 7 mM ABTS and 2.45 mM K2S2O8 in water was kept in the dark for 16 h to form ABTS^•+. The working solution was prepared by adding 150 µL of ABTS^•+ solution to 2.9 mL MeOH. Aliquots of 180 µL of this working solution were pipetted into wells containing 20 µL of test samples in DMSO with different concentrations (10, 20, 50, 100, and 200 µM). Absorbance was measured at 737 nm after 10 s mixing using a Multiskan GO microplate spectrophotometer (Thermo Fisher Scientific, Waltham, MA, USA) at 0, 1, 2, 3, 4, 5, 10, 15, 30, 45, 60, 75, 90, 105, and 120 min. Quercetin was used as the standard. The IC50 values were calculated based on the inhibition percentage measured at 120 min. The experiments were carried out in duplicate and repeated three times.
# [8] = DPPH radical scavenging assay; details: from inhibition percentage at 90 min, concentration range 10–200 µM
# Experimental: The method used for the DPPH radical scavenging assay was adopted from Clarke et al., with modifications. A total of 180 µL freshly made 0.2 mM DPPH solution in methanol was added to 20 µL of the investigated compounds in various concentrations (10, 20, 50, 100, and 200 µM) in DMSO. After a gentle, 10-s mixing period, the plate was kept in the dark for 90 min. and the absorbance was read at 515 nm using a Multiskan GO microplate spectrophotometer (Thermo Fisher Scientific, Waltham, MA, USA) at 0, 1, 2, 3, 4, 5, 10, 15, 30, 45, 60, 75, and 90 min. Blanks (20 µL DMSO with 180 µL MeOH) and quercetin standards in the same concentration as the tested compounds were measured simultaneously. The IC50 values were calculated based on the inhibition percentage measured at 90 min. The measurements were performed in duplicate and repeated three times.
# MTT cell viability assay = format: cell-based; details: rat, H9c2 cells, read-out: cell viability compared to the control
# Experimental: as §1
# [9] = design: method as in ref 29 (Deng et al.); details: ref 29 (Deng et al.); cited from earlier work
Structure (SMILES),FRAP value [4],melting point [°C],cytotoxic activity (cell viability) (H9c2 cells),ORAC value (AUCnet) [5],IC50 DPPH scavenging [8],also measured
"CN(C)c1ccc(-c2oc3ccccc3c(=O)c2O)cc1 [4′-N,N-dimethylamino-3-OH-flavon]",,,,,,scavenging of DPPH radicals [1]: significant scavenging; scavenging of ABTS radicals [2]: significant scavenging
"CN(C)c1ccc(-c2cc(=O)c3ccccc3o2)cc1 [4′-N,N-dimethylamino-flavon]",,,,,,radical scavenger activity [3]: good radical scavenger
"COc1ccc(-c2oc3ccc(-c4cccc(N(C)C)c4)cc3c(=O)c2O)cc1OC [6a, 2-(3,4-Dimethoxyphenyl)-6-[3-(dimethylamino)phenyl]-3-hydroxy-4H-chromen-4-one]",highest FRAP values,187.7 to 188.8,did not exhibit cytotoxic activity,highest ORAC value,,ORAC value compared to quercetin [5]: comparable to quercetin
"COCc1ccc(-c2ccc3oc(-c4ccc(OC)c(OC)c4)c(O)c(=O)c3c2)cc1 [6b, 2-(3,4-Dimethoxyphenyl)-3-hydroxy-6-[4-(methoxymethyl)phenyl]-4H-chromen-4-one]",significantly lower ferrous equivalents,192.8 to 194.3,significantly decreased the viability of cells,highest ORAC value,,
"COc1ccc(-c2oc3cc(-c4cccc(N(C)C)c4)ccc3c(=O)c2O)cc1OC [6c, 2-(3,4-Dimethoxyphenyl)-7-[3-(dimethylamino)phenyl]-3-hydroxy-4H-chromen-4-one]",highest FRAP values,,did not exhibit cytotoxic activity,fourth highest capacity,lowest IC50 value,oxidative transformation products (potential metabolites) [6]: two potential metabolites were detected; IC50 ABTS radical cation scavenging [7]: lowest IC50 value
"COCc1ccc(-c2ccc3c(=O)c(O)c(-c4ccc(OC)c(OC)c4)oc3c2)cc1 [6d, 2-(3,4-Dimethoxyphenyl)-3-hydroxy-7-[4-(methoxymethyl)phenyl]-4H-chromen-4-one]",significantly lower ferrous equivalents,212.1 to 214.2,significantly decreased the viability of cells,,,"viability at 12 h, 20 µM (MTT cell viability assay): 46%"
"COc1cc(-c2oc3cc(-c4cccc(N(C)C)c4)ccc3c(=O)c2O)cc(OC)c1OC [6e, 7-[3-(Dimethylamino)phenyl]-3-hydroxy-2-(3,4,5-trimethoxyphenyl)-4H-chromen-4-one]",highest FRAP values,179.5 to 181.8,did not exhibit cytotoxic activity,highest ORAC value,lower antioxidant potency,ORAC value compared to quercetin [5]: comparable to quercetin
"COCc1ccc(-c2ccc3c(=O)c(O)c(-c4cc(OC)c(OC)c(OC)c4)oc3c2)cc1 [6f, 3-Hydroxy-7-[4-(methoxymethyl)phenyl]-2-(3,4,5-trimethoxyphenyl)-4H-chromen-4-one]",significantly lower ferrous equivalents,208.1 to 209.2,significantly decreased the viability of cells,,lower antioxidant potency,
O=c1c(O)c(-c2ccc(O)c(O)c2)oc2cc(O)cc(O)c12 [quercetin],,,,,,FRAP value relative to the methylated form [9]: 650 times
